Experimental data taken from PubChem BioAssay (NCI).
Where “and” joins values, the source holds several entries; their conditions need not be identical. Equal entries are not always repeated.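 Test compounds were applied to cells in 96-well plates for 48 hours at 5 doses. Here, GI50 denotes the concentration required for 50% inhibition of growth. TGI is the concentration that stops growth completely.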

test system: PC-3 prostate; assay: growth of human tumour cells (NCI), 48 h

| Compound | GI50 | TGI |
| --- | --- | --- |
| NC(=NCCCOc1ccc(Cl)cc1)Nc1ccc(C(F)(F)F)cc1 | 1.67 µM | 5.25 µM |
| C=CC1CC12C(=O)C1OC2(C)C2C(=O)c3cc4ccccc4cc3C(=O)C12 (centres undefined) | 20.3 µM | > 100 µM |

test system: SF-295 CNS; assay: growth of human tumour cells (NCI), 48 h

| Compound | TGI | GI50 |
| --- | --- | --- |
| O=C(CCCn1ccnc1[N+](=O)[O-])NCCn1cncc1[N+](=O)[O-] | > 100 µM | – |
| Cn1cc(C2=C(c3ccc4ccccc4c3)C(=O)NC2=O)c2ccccc21 | > 25 µM | > 23.5 µM |
| O=C(OCc1ccc2cccc(O)c2n1)N1CCN(C(=O)c2cc3cc(F)ccc3[nH]2)CC1 | 18.6 µM | 5.69 µM |
| C[As](C)SC1OC(CO)C(O)C1O (centres undefined) | 7.16 µM | 2.28 µM |
| CCCCCCCCCC/C=C/CC(=O)SCCNC(=O)CCNC(=O)[C@@H](O)C(C)(C)COP(=O)(O)OP(=O)(O)OCC1OC(n2cnc3c(N)ncnc32)C(O)C1OP(=O)(O)O (some centres undefined) | > 10 µM | – |
| Cn1c(=O)c2c(nc(Nc3cc(=O)[nH]c(=O)[nH]3)n2Cc2ccccc2)n(C)c1=O | > 100 µM | > 100 µM |
| COc1ccc2c(c1)CCC1C2CC[C@@]2(C)C1CC1=CC(COC(C)=O)C3C(=O)c4ccccc4C(=O)C3C12 (some centres undefined) | > 100 µM | > 100 µM |
| C=C(F)C(=O)N1CCN(c2nc(OC[C@@H]3CCCN3C)nc3c2CCN(c2cccc4cccc(Cl)c24)C3)C[C@@H]1CC#N | 3.13 µM | 1.48 µM |
| Cc1c2cccnc2c(C)c2c1c1cc(CO)ccc1n2C | 10.1 µM | 1.74 µM |
| CC[C@]12C=CCN3CC[C@@]4(c5ccc(OC)cc5N(C)[C@H]4[C@@](O)(C(=O)OC)[C@@H]1OC(=O)CCC[P+](c1ccccc1)(c1ccccc1)c1ccccc1)[C@@H]32 | 4.66 µM and 5.65 µM | 1.49 µM and 2.22 µM |
| CC(=O)OC1Oc2ccccc2-c2oc(=O)c(-c3cc(=O)oc4cc(O)ccc34)cc21 (centres undefined) | 25.2 µM | 8.74 µM |
| Ic1ccc(Nc2nc3nonc3nc2Nc2ccc(I)cc2)cc1 | 0.893 µM | 0.215 µM |
| CC(C)(C)C(=O)OCOP(=O)(OCOC(=O)C(C)(C)C)C1CCCN(O)C1=O (centres undefined) | > 100 µM | 3.9 µM |
| CC(SC(C)C(=O)N/N=C/c1cccc(Cl)c1)C(=O)N/N=C\c1cccc(Cl)c1 (centres undefined) | 35 µM | 14.1 µM |
| CCOC(=O)/C=C/C(C(=O)/C=C/c1ccc(OC2CCCCO2)c(OC)c1)=C(O)\C=C\c1ccc(OC2CCCCO2)c(OC)c1 (centres undefined) | 42.8 µM | 10.7 µM |
| Cc1ccc(Cl)cc1Nc1nc(C(F)(F)F)ccc1C(=O)N1CCN(c2ccc(F)cc2)CC1 | 32.5 µM | 15.6 µM |
| COc1ccc(OC)c(NC(=O)C(=O)NNC(=O)c2sc(NNC(C)=O)nc2C)c1 | > 100 µM | – |
| CCCCc1c(OC)cc(O)c2c1C(=O)c1[nH]c(C(=O)O)c(O)c(=O)c1C2=O | > 100 µM | – |
| O=C(Nc1ccc(OS(=O)(=O)c2ccccc2)cc1)C12CC3CC(CC(C3)C1)C2 | > 100 µM | 8.27 µM |
| CCN1CCN(c2ccc(Nc3cc(N(C)C(=O)Nc4c(Cl)c(OC)cc(OC)c4Cl)ncn3)cc2)CC1 | 25.9 µM | 11.4 µM |
| CC(C)c1ccc(Nc2ccc3c(OCCCN4CCN(C)CC4)cccc3n2)cc1 | 15.3 µM | 3.63 µM |
| COc1ccc(N(C)c2ncnc3occ(C)c23)cc1 | > 100 µM | < 0.01 µM |
| COC(=O)c1cc2c(cc1O)[C@@H](NC(C)=O)CCc1cc(OC)c(OC)c(OC)c1-2 | > 100 µM | < 0.01 µM |
| COc1ccc2c(c1)C(C)Cc1c(Cl)ncnc1N2C (centres undefined) | > 48.1 µM | 0.375 µM |
| COCCOc1cc(F)c2c(Nc3ccc(NC(=O)Cn4cc(C(C)C)nn4)cc3)ncnc2c1 | > 100 µM | 53.5 µM |
| C#Cc1cccc(Nc2ncnc3cc(OC)c(OCCCCCCC(=O)NO)cc23)c1 | 2.18 µM | 0.311 µM |
| Cc1nnc(S(=O)(=O)c2ccc(N=Nc3c(N)nc(N)nc3N)cc2)s1 | > 100 µM | – |
| O=C(c1ccccc1)c1cc(Cl)ccc1OCCCCN1CCN(CCCCOc2ccc(Cl)cc2C(=O)c2ccccc2)CC1 | 4.15 µM | 2 µM |
| Clc1ccc2c(NCCCNc3nccc(Nc4ccc(Br)cc4)n3)ccnc2c1 | 2.97 µM | 1.56 µM |
| NC(=NCCCOc1ccc(Cl)cc1)Nc1ccc(C(F)(F)F)cc1 | 3.28 µM | 1.7 µM |

test system: T-47D breast; assay: growth of human tumour cells (NCI), 48 h

| Compound | TGI | GI50 |
| --- | --- | --- |
| O=C(CCCn1ccnc1[N+](=O)[O-])NCCn1cncc1[N+](=O)[O-] | > 100 µM | – |
| Cn1cc(C2=C(c3ccc4ccccc4c3)C(=O)NC2=O)c2ccccc21 | > 25 µM | > 25 µM |
| C[As](C)SC1OC(CO)C(O)C1O (centres undefined) | > 100 µM | 3.21 µM |
| CCCCCCCCCC/C=C/CC(=O)SCCNC(=O)CCNC(=O)[C@@H](O)C(C)(C)COP(=O)(O)OP(=O)(O)OCC1OC(n2cnc3c(N)ncnc32)C(O)C1OP(=O)(O)O (some centres undefined) | > 10 µM | – |
| OCCN1CN(CCO)CN(c2nc(N3CN(CCO)CN(CCO)C3)nc(N3CN(CCO)CN(CCO)C3)n2)C1 | 4.92 ng/mL | 1.06 ng/mL |
| Cn1c(=O)c2c(nc(Nc3cc(=O)[nH]c(=O)[nH]3)n2Cc2ccccc2)n(C)c1=O | > 100 µM | > 100 µM |
| COc1ccc2c(c1)CCC1C2CC[C@@]2(C)C1CC1=CC(COC(C)=O)C3C(=O)c4ccccc4C(=O)C3C12 (some centres undefined) | > 100 µM | 90.6 µM |
| C=C(F)C(=O)N1CCN(c2nc(OC[C@@H]3CCCN3C)nc3c2CCN(c2cccc4cccc(Cl)c24)C3)C[C@@H]1CC#N | 3.07 µM | 1.24 µM |
| Cc1c2cccnc2c(C)c2c1c1cc(CO)ccc1n2C | 4.97 µM | 0.989 µM |
| CC/C(=C(/c1ccc(OCCN(C)C)cc1)c1ccc(OC(=O)CCCCC(=O)c2c(C)[nH]c(/C=C3\N=C(c4ccc[nH]4)C=C3OC)c2C)cc1)c1ccccc1 | 6.02 µM | 1.37 µM |
| CC[C@]12C=CCN3CC[C@@]4(c5ccc(OC)cc5N(C)[C@H]4[C@@](O)(C(=O)OC)[C@@H]1OC(=O)CCC[P+](c1ccccc1)(c1ccccc1)c1ccccc1)[C@@H]32 | 6.56 µM and 0.977 µM | 0.29 µM and 0.224 µM |
| CC(=O)OC1Oc2ccccc2-c2oc(=O)c(-c3cc(=O)oc4cc(O)ccc34)cc21 (centres undefined) | 48.4 µM | 12.1 µM |
| Ic1ccc(Nc2nc3nonc3nc2Nc2ccc(I)cc2)cc1 | > 91.1 µM | 0.179 µM |
| CC(C)(C)C(=O)OCOP(=O)(OCOC(=O)C(C)(C)C)C1CCCN(O)C1=O (centres undefined) | 17.8 µM | 0.543 µM |
| CC(SC(C)C(=O)N/N=C/c1cccc(Cl)c1)C(=O)N/N=C\c1cccc(Cl)c1 (centres undefined) | 93.8 µM | 23 µM |
| CCOC(=O)/C=C/C(C(=O)/C=C/c1ccc(OC2CCCCO2)c(OC)c1)=C(O)\C=C\c1ccc(OC2CCCCO2)c(OC)c1 (centres undefined) | 60.3 µM | 15.1 µM |
| Cc1ccc(Cl)cc1Nc1nc(C(F)(F)F)ccc1C(=O)N1CCN(c2ccc(F)cc2)CC1 | 42.6 µM | 6.25 µM |
| CCCCc1c(OC)cc(O)c2c1C(=O)c1[nH]c(C(=O)O)c(O)c(=O)c1C2=O | > 100 µM | – |
| O=C(Nc1ccc(OS(=O)(=O)c2ccccc2)cc1)C12CC3CC(CC(C3)C1)C2 | > 100 µM | 3.57 µM |
| CCN1CCN(c2ccc(Nc3cc(N(C)C(=O)Nc4c(Cl)c(OC)cc(OC)c4Cl)ncn3)cc2)CC1 | 6.49 µM | 2.51 µM |
| CC(C)c1ccc(Nc2ccc3c(OCCCN4CCN(C)CC4)cccc3n2)cc1 | 31.6 µM | 12.9 µM |
| COc1ccc2c(c1)C(C)Cc1c(Cl)ncnc1N2C (centres undefined) | 20.5 µM | 2.02 µM |
| COCCOc1cc(F)c2c(Nc3ccc(NC(=O)Cn4cc(C(C)C)nn4)cc3)ncnc2c1 | > 100 µM | 8.11 µM |
| C#Cc1cccc(Nc2ncnc3cc(OC)c(OCCCCCCC(=O)NO)cc23)c1 | 0.495 µM | 0.0465 µM |
| Cc1nnc(S(=O)(=O)c2ccc(N=Nc3c(N)nc(N)nc3N)cc2)s1 | > 100 µM | – |
| O=C(c1ccccc1)c1cc(Cl)ccc1OCCCCN1CCN(CCCCOc2ccc(Cl)cc2C(=O)c2ccccc2)CC1 | 22.4 µM | 4.59 µM |
| C=CC1CC12C(=O)C1OC2(C)C2C(=O)c3cc4ccccc4cc3C(=O)C12 (centres undefined) | > 100 µM | 23.1 µM |
